“And” between values parts separate entries of the source, which are not always exact repeats. Identical values can stand only once.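 These data come from cells grown in 96-well plates and exposed to compound for 48 hours at five concentrations. GI50 = concentration required for 50% inhibition of growth. Definition used: TGI = concentration required for complete inhibition of growth.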
How the values were obtained:
Assay in all cases: NCI tumour cell line growth inhibition, 48 h
MDA-MB-435 = tested on: MDA-MB-435
BT-549 breast = tested on: BT-549 breast
HCC-2998 colon = tested on: HCC-2998 colon
HOP-62 NSCLC = tested on: HOP-62 NSCLC
COLO 205 colon = tested on: COLO 205 colon
CCRF-CEM leukemia = tested on: CCRF-CEM leukemia
IGROV1 ovarian = tested on: IGROV1 ovarian
SF-539 CNS = tested on: SF-539 CNS
HT29 colon = tested on: HT29 colon
NCI/ADR-RES ovarian = tested on: NCI/ADR-RES ovarian
UACC-62 melanoma = tested on: UACC-62 melanoma
HOP-92 NSCLC = tested on: HOP-92 NSCLC
SK-OV-3 ovarian = tested on: SK-OV-3 ovarian
CAKI-1 renal = tested on: CAKI-1 renal
OVCAR-5 ovarian = tested on: OVCAR-5 ovarian
SF-268 CNS = tested on: SF-268 CNS
PC-3 prostate = tested on: PC-3 prostate
HCT-116 colon = tested on: HCT-116 colon
OVCAR-3 ovarian = tested on: OVCAR-3 ovarian
M14 melanoma = tested on: M14 melanoma
SR leukemia = tested on: SR leukemia
OVCAR-4 ovarian = tested on: OVCAR-4 ovarian
HCT-15 colon = tested on: HCT-15 colon
OVCAR-8 ovarian = tested on: OVCAR-8 ovarian
SN12C renal = tested on: SN12C renal
NCI-H23 lung = tested on: NCI-H23 lung
UACC-257 melanoma = tested on: UACC-257 melanoma
SK-MEL-5 melanoma = tested on: SK-MEL-5 melanoma
TK-10 renal = tested on: TK-10 renal
MCF7 breast = tested on: MCF7 breast
EKVX NSCLC = tested on: EKVX NSCLC
NCI-H522 lung = tested on: NCI-H522 lung
MDA-N = tested on: MDA-N
SF-295 CNS = tested on: SF-295 CNS
LOX IMVI melanoma = tested on: LOX IMVI melanoma
MDA-MB-231 breast = tested on: MDA-MB-231 breast
MALME-3M melanoma = tested on: MALME-3M melanoma
MOLT-4 leukemia = tested on: MOLT-4 leukemia
SK-MEL-2 melanoma = tested on: SK-MEL-2 melanoma
NCI-H226 lung = tested on: NCI-H226 lung
786-0 renal = tested on: 786-0 renal
T-47D breast = tested on: T-47D breast
U251 CNS = tested on: U251 CNS
ACHN renal = tested on: ACHN renal
RPMI-8226 leukemia = tested on: RPMI-8226 leukemia
KM12 colon = tested on: KM12 colon
A549 NSCLC = tested on: A549 NSCLC
SW-620 colon = tested on: SW-620 colon
UO-31 renal = tested on: UO-31 renal
A498 renal = tested on: A498 renal
DU-145 prostate = tested on: DU-145 prostate
HL-60(TB) leukemia = tested on: HL-60(TB) leukemia
K-562 leukemia = tested on: K-562 leukemia
HS 578T breast = tested on: HS 578T breast
SK-MEL-28 melanoma = tested on: SK-MEL-28 melanoma
SNB-75 CNS = tested on: SNB-75 CNS
NCI-H460 lung = tested on: NCI-H460 lung
SNB-19 CNS = tested on: SNB-19 CNS
RXF 393 renal = tested on: RXF 393 renal

## c1ccc2c(c1)CC1=C(O2)c2ccccc2OC1
MDA-MB-435
  TGI: 86.3 µM
BT-549 breast
  TGI: 51.1 µM
HCC-2998 colon
  TGI: 42.2 µM
HOP-62 NSCLC
  TGI: > 100 µM
COLO 205 colon
  TGI: 38.3 µM
CCRF-CEM leukemia
  TGI: > 100 µM
IGROV1 ovarian
  TGI: > 100 µM
SF-539 CNS
  TGI: 71.6 µM
HT29 colon
  TGI: > 100 µM
NCI/ADR-RES ovarian
  TGI: > 100 µM
UACC-62 melanoma
  TGI: 92.8 µM
HOP-92 NSCLC
  TGI: 95 µM
SK-OV-3 ovarian
  TGI: > 100 µM
CAKI-1 renal
  TGI: 49.5 µM
OVCAR-5 ovarian
  TGI: > 100 µM
SF-268 CNS
  TGI: > 100 µM
PC-3 prostate
  TGI: > 100 µM
HCT-116 colon
  TGI: 30.6 µM
OVCAR-3 ovarian
  TGI: 48.7 µM
M14 melanoma
  TGI: > 100 µM
SR leukemia
  TGI: > 100 µM
OVCAR-4 ovarian
  TGI: 88.2 µM
HCT-15 colon
  TGI: 72.6 µM
OVCAR-8 ovarian
  TGI: > 100 µM
SN12C renal
  TGI: 37.4 µM
NCI-H23 lung
  TGI: > 100 µM
UACC-257 melanoma
  TGI: > 100 µM
SK-MEL-5 melanoma
  TGI: 44.3 µM
TK-10 renal
  TGI: 94.3 µM
MCF7 breast
  TGI: > 100 µM
EKVX NSCLC
  TGI: 45.7 µM
NCI-H522 lung
  TGI: 44.5 µM
MDA-N
  TGI: 45.5 µM
SF-295 CNS
  TGI: > 100 µM
LOX IMVI melanoma
  TGI: 40.2 µM
MDA-MB-231 breast
  TGI: 76.2 µM
MALME-3M melanoma
  TGI: > 100 µM
MOLT-4 leukemia
  TGI: 80.1 µM
SK-MEL-2 melanoma
  TGI: 70.3 µM
NCI-H226 lung
  TGI: > 100 µM
786-0 renal
  TGI: 32.6 µM
T-47D breast
  TGI: 67.9 µM
U251 CNS
  TGI: 59.2 µM
ACHN renal
  TGI: > 100 µM
RPMI-8226 leukemia
  TGI: 67.3 µM
KM12 colon
  TGI: > 100 µM
A549 NSCLC
  TGI: > 100 µM
SW-620 colon
  TGI: 42.2 µM
UO-31 renal
  TGI: > 100 µM
A498 renal
  TGI: > 100 µM
DU-145 prostate
  TGI: > 100 µM

## COc1ccc(CC2CCc3nc(N)nc(N)c3C2)cc1OC (stereo not drawn)
MDA-MB-435
  TGI: > 100 µM
BT-549 breast
  TGI: 51.7 µM
HCC-2998 colon
  TGI: > 47 µM
HOP-62 NSCLC
  TGI: > 100 µM
COLO 205 colon
  TGI: 36 µM
HL-60(TB) leukemia
  TGI: > 100 µM
IGROV1 ovarian
  TGI: > 64 µM
SF-539 CNS
  TGI: > 40.5 µM
HT29 colon
  TGI: > 24.5 µM
NCI/ADR-RES ovarian
  TGI: 16.3 µM
UACC-62 melanoma
  TGI: > 36.9 µM
HOP-92 NSCLC
  TGI: > 100 µM
K-562 leukemia
  TGI: > 100 µM
SK-OV-3 ovarian
  TGI: > 100 µM
CAKI-1 renal
  TGI: > 100 µM
OVCAR-5 ovarian
  TGI: > 100 µM
SF-268 CNS
  TGI: > 29 µM
PC-3 prostate
  TGI: > 100 µM
HS 578T breast
  TGI: > 100 µM
HCT-116 colon
  TGI: > 100 µM
OVCAR-3 ovarian
  TGI: > 100 µM
M14 melanoma
  TGI: > 39.5 µM
SR leukemia
  TGI: > 100 µM
SK-MEL-28 melanoma
  TGI: > 100 µM
OVCAR-4 ovarian
  TGI: > 100 µM
HCT-15 colon
  TGI: 98 µM
OVCAR-8 ovarian
  TGI: > 62.5 µM
SNB-75 CNS
  TGI: > 100 µM
SN12C renal
  TGI: > 100 µM
NCI-H23 lung
  TGI: > 50 µM
UACC-257 melanoma
  TGI: > 54.4 µM
SK-MEL-5 melanoma
  TGI: 18.5 µM
NCI-H460 lung
  TGI: > 48.6 µM
TK-10 renal
  TGI: > 100 µM
MCF7 breast
  TGI: > 44.4 µM
EKVX NSCLC
  TGI: > 91.2 µM
NCI-H522 lung
  TGI: 12.6 µM
MDA-N
  TGI: > 44 µM
SF-295 CNS
  TGI: > 41.4 µM
LOX IMVI melanoma
  TGI: 21.1 µM
MDA-MB-231 breast
  TGI: > 75.2 µM
MALME-3M melanoma
  TGI: 23.2 µM
SNB-19 CNS
  TGI: > 89 µM
MOLT-4 leukemia
  TGI: > 100 µM
SK-MEL-2 melanoma
  TGI: > 91.6 µM
NCI-H226 lung
  TGI: 42.4 µM
T-47D breast
  TGI: > 82.6 µM
U251 CNS
  TGI: > 100 µM
ACHN renal
  TGI: > 63.1 µM
RPMI-8226 leukemia
  TGI: > 100 µM
KM12 colon
  TGI: > 100 µM
A549 NSCLC
  TGI: > 53.1 µM
SW-620 colon
  TGI: > 100 µM
UO-31 renal
  TGI: > 100 µM
RXF 393 renal
  TGI: 0.81 µM
A498 renal
  TGI: > 100 µM

## CC(=O)O[C@H]1C(=O)[C@@]2(C)C(C(OC(=O)c3ccccc3)[C@]3(O)CC(OC(=O)[C@H](OC(=O)CCC(=O)O)C(NC(=O)c4ccccc4)c4ccccc4)C(C)=C1C3(C)C)C1(OC(C)=O)COC1C[C@@H]2O (stereo partly drawn)
HCC-2998 colon
  TGI: > 100 µM and 20.3 µM
HOP-62 NSCLC
  GI50: < 0.0175 µM and 0.0835 µM
  TGI: > 100 µM
COLO 205 colon
  TGI: < 0.0142 µM and 0.04 µM
HL-60(TB) leukemia
  TGI: < 0.0136 µM
CCRF-CEM leukemia
  TGI: 0.658 µM and 1.57 µM
IGROV1 ovarian
  TGI: > 67.7 µM and 50 µM
SF-539 CNS
  TGI: < 0.0196 µM and 0.0584 µM
NCI/ADR-RES ovarian
  GI50: 8.73 µM and 17.7 µM
  TGI: 61.9 µM and > 72.3 µM
HOP-92 NSCLC
  TGI: > 78.8 µM and 91.8 µM
SK-OV-3 ovarian
  GI50: < 0.0159 µM and 0.0343 µM
  TGI: > 100 µM
CAKI-1 renal
  TGI: > 100 µM
OVCAR-5 ovarian
  GI50: < 0.0146 µM and 0.0324 µM
  TGI: > 36.1 µM
SF-268 CNS
  TGI: > 100 µM
PC-3 prostate
  TGI: 0.0512 µM
HS 578T breast
  TGI: 3.1 µM and 1.57 µM
HCT-116 colon
  TGI: > 100 µM
OVCAR-3 ovarian
  TGI: 1.76 µM and 0.459 µM
M14 melanoma
  GI50: < 0.0111 µM and 0.0224 µM
  TGI: 41.2 µM and > 100 µM
SR leukemia
  TGI: < 0.01 µM and 0.0173 µM
OVCAR-4 ovarian
  TGI: > 100 µM
HCT-15 colon
  TGI: > 100 µM
OVCAR-8 ovarian
  GI50: 0.0159 µM and 0.038 µM
  TGI: > 100 µM
SNB-75 CNS
  GI50: 0.022 µM and 0.076 µM
SN12C renal
  GI50: < 0.01 µM and 0.0287 µM
  TGI: > 100 µM
NCI-H23 lung
  TGI: > 100 µM
UACC-257 melanoma
  GI50: < 0.01 µM and 0.0295 µM
  TGI: > 100 µM
SK-MEL-5 melanoma
  TGI: 13.9 µM and 18 µM
NCI-H460 lung
  TGI: > 100 µM
TK-10 renal
  TGI: 97.1 µM and 15.4 µM
MCF7 breast
  TGI: > 100 µM
EKVX NSCLC
  GI50: 0.121 µM and 0.875 µM
  TGI: > 100 µM
NCI-H522 lung
  TGI: < 0.01 µM
MDA-N
  TGI: < 0.01 µM
SF-295 CNS
  GI50: 0.0471 µM and 0.18 µM
  TGI: 2.27 µM
LOX IMVI melanoma
  TGI: > 100 µM
MDA-MB-231 breast
  GI50: < 0.0171 µM and 0.0486 µM
MALME-3M melanoma
  GI50: < 0.01 µM and 0.0659 µM
  TGI: > 100 µM
SNB-19 CNS
  TGI: > 100 µM
MOLT-4 leukemia
  TGI: 1.05 µM
NCI-H226 lung
  TGI: > 100 µM
786-0 renal
  GI50: 0.0303 µM and 0.108 µM
  TGI: > 100 µM
T-47D breast
  TGI: > 100 µM
U251 CNS
  TGI: > 100 µM
ACHN renal
  GI50: 0.19 µM and 0.821 µM
  TGI: > 100 µM
RPMI-8226 leukemia
  TGI: < 0.01 µM
A549 NSCLC
  TGI: > 100 µM
SW-620 colon
  TGI: > 100 µM
UO-31 renal
  GI50: 14 µM and 61.4 µM
  TGI: > 100 µM
RXF 393 renal
  GI50: < 0.0249 µM and 0.0528 µM
  TGI: 2.79 µM
DU-145 prostate
  GI50: < 0.01 µM and 0.0319 µM
  TGI: 0.0715 µM and 0.193 µM

— PubChem BioAssay (NCI)
